The test system of the data set is HepG2 cells. Particulars: 24 hours; for Cell viability: vs 0% ethanol.

Structures are written as SMILES. Like-named read-outs stand apart in the source and are kept apart here.

Viable cell count and Cell viability data for one molecule are collected here from US20240050465A1, “HYDROGEN WATER FOR PREVENTION OF ALCOHOLIC HEPATOPATHY” (NIHON TRIM CO., LTD., priority 2021, published 2024).

Experimental: A HepG2 cell line, which is human liver cancer-derived cells, was obtained from Riken Bioresource Research Center (RIKEN BRC) and cultured in DMEM containing 10% fetal bovine serum (FBS) (Sigma-Aldrich, F7524) and 1% penicillin-streptomycin (manufactured by FUJIFILM Wako Pure Chemical Corporation, trade name: 168-23191) under conditions of 37° C. and 5% CO2.

`CCO` [Ethanol, ethanol]: the Viable cell count was 9.48 × 10^4 cells/well (HepG2, ethanol 0.25%); 9.37 × 10^4 cells/well (HepG2, ethanol 0.5%); 8.22 × 10^4 cells/well (HepG2, ethanol 1%); 6.05 × 10^4 cells/well (HepG2, ethanol 2%); 4.87 × 10^4 cells/well (HepG2, ethanol 4%); 0.35 × 10^4 cells/well (HepG2, ethanol 8%). Besides, the Cell viability by setting is: (HepG2, ethanol 0.25%) 96.7%; (HepG2, ethanol 0.5%) 95.6%; (HepG2, ethanol 1%) 83.8%; (HepG2, ethanol 2%) 61.7%; (HepG2, ethanol 4%) 49.7%; (HepG2, ethanol 8%) 3.6%.
